# Test results published in PubChem BioAssay AID328 (DTP/NCI, 2004).
# Where “and” joins values, the source holds several entries; their conditions need not be identical. Identical values can stand only once. Inconclusive results and toxic doses are left out.
# Test system: BDF1 mice, P388 leukemia ip, median survival T/C
# Assay: NCI In Vivo Anticancer Drug Screen. Data for tumor model P388 Leukemia (intraperitoneal) in B6D2F1 (BDF1) mice
# Conditions: endpoint: median survival time, higher = longer survival
# In short: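 Reported as T/C, where T is the survival measurement in dosed animals and C the same measurement in vehicle controls.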
# [1] = dose: 50.0 mg/kg/injection, schedule: Q01DX009 (ip), vehicle: saline with Tween-80
# [2] = dose: 100.0 mg/kg/injection, schedule: Q01DX009 (ip), vehicle: saline with Tween-80
# [3] = dose: 200.0 mg/kg/injection, schedule: Q01DX009 (ip), vehicle: saline with Tween-80
# [4] = dose: 100.0 mg/kg/injection, schedule: Q01DX001 (ip), vehicle: saline
# [5] = dose: 200.0 mg/kg/injection, schedule: Q01DX001 (ip), vehicle: saline
# [6] = dose: 400.0 mg/kg/injection, schedule: Q01DX001 (ip), vehicle: saline
smiles,measurement,setting,value
Clc1ccc(C[P+](c2ccccc2)(c2ccccc2)c2ccccc2)cc1Cl,T/C,"dose: 0.45 mg/kg/injection, schedule: Q01DX009 (ip), vehicle: saline",104 % of control
same,T/C,"dose: 0.9 mg/kg/injection, schedule: Q01DX009 (ip), vehicle: saline",100 % of control
same,T/C,"dose: 1.35 mg/kg/injection, schedule: Q01DX001 (ip), vehicle: saline",100 % of control
same,T/C,"dose: 1.8 mg/kg/injection, schedule: Q01DX009 (ip), vehicle: saline",91 % of control
same,T/C,"dose: 2.7 mg/kg/injection, schedule: Q01DX001 (ip), vehicle: saline",95 % of control
same,T/C,"dose: 3.6 mg/kg/injection, schedule: Q01DX009 (ip), vehicle: saline",108 % of control
CCCC(=O)OCc1ccccn1,T/C,[1],107 % of control
same,T/C,[2],102 % of control
same,T/C,[3],86 % of control
OC1OC(COC(c2ccccc2)(c2ccccc2)c2ccccc2)C(O)C(O)C1O (stereo not given),T/C,"dose: 10.0 mg/kg/injection, schedule: Q01DX009 (ip), vehicle: saline",123 % of control
same,T/C,"dose: 12.5 mg/kg/injection, schedule: Q01DX009 (ip), vehicle: saline",88 % of control
same,T/C,"dose: 20.0 mg/kg/injection, schedule: Q01DX009 (ip), vehicle: saline",108 % of control
same,T/C,"dose: 25.0 mg/kg/injection, schedule: Q01DX009 (ip), vehicle: saline",104 % of control and 115 % of control
same,T/C,"dose: 40.0 mg/kg/injection, schedule: Q01DX009 (ip), vehicle: saline",114 % of control
same,T/C,"dose: 50.0 mg/kg/injection, schedule: Q01DX009 (ip), vehicle: saline",101 % of control and 123 % of control
same,T/C,"dose: 80.0 mg/kg/injection, schedule: Q01DX009 (ip), vehicle: saline",107 % of control
same,T/C,"dose: 100.0 mg/kg/injection, schedule: Q01DX009 (ip), vehicle: saline",90 % of control and 104 % of control and 105 % of control
same,T/C,"dose: 100.0 mg/kg/injection, schedule: Q01DX009 (ip), vehicle: water",100 % of control
same,T/C,"dose: 100.0 mg/kg/injection, schedule: Q04DX003 (ip), vehicle: saline with Tween-80",110 % of control
same,T/C,"dose: 100.0 mg/kg/injection, schedule: Q04DX003 (ip), vehicle: saline",90 % of control
same,T/C,"dose: 100.0 mg/kg/injection, schedule: Q04DX003 (ip), vehicle: water",105 % of control
same,T/C,"dose: 200.0 mg/kg/injection, schedule: Q01DX009 (ip), vehicle: water",105 % of control
same,T/C,"dose: 200.0 mg/kg/injection, schedule: Q04DX003 (ip), vehicle: saline with Tween-80",105 % of control
same,T/C,"dose: 200.0 mg/kg/injection, schedule: Q04DX003 (ip), vehicle: saline",95 % of control
same,T/C,"dose: 200.0 mg/kg/injection, schedule: Q04DX003 (ip), vehicle: water",110 % of control
same,T/C,"dose: 400.0 mg/kg/injection, schedule: Q01DX009 (ip), vehicle: water",105 % of control
same,T/C,"dose: 400.0 mg/kg/injection, schedule: Q04DX003 (ip), vehicle: saline with Tween-80",110 % of control
same,T/C,"dose: 400.0 mg/kg/injection, schedule: Q04DX003 (ip), vehicle: water",110 % of control
CCCCCCCCCCCCCCCCSc1ccc(C)cc1,T/C,"dose: 5.0 mg/kg/injection, schedule: Q04DX003 (ip), vehicle: saline sonified",105 % of control
same,T/C,"dose: 10.0 mg/kg/injection, schedule: Q04DX003 (ip), vehicle: saline sonified",105 % of control
same,T/C,"dose: 20.0 mg/kg/injection, schedule: Q04DX003 (ip), vehicle: saline sonified",100 % of control
same,T/C,"dose: 200.0 mg/kg/injection, schedule: Q04DX003 (ip), vehicle: other",100 % of control
same,T/C,"dose: 400.0 mg/kg/injection, schedule: Q04DX003 (ip), vehicle: other",100 % of control
CCCCCNC(=O)Nc1cccc(Cl)c1C,T/C,"dose: 6.25 mg/kg/injection, schedule: Q01DX009 (ip), vehicle: saline with Tween-80",116 % of control
same,T/C,"dose: 12.5 mg/kg/injection, schedule: Q01DX009 (ip), vehicle: saline with Tween-80",109 % of control
same,T/C,"dose: 25.0 mg/kg/injection, schedule: Q01DX009 (ip), vehicle: saline with Tween-80",108 % of control
same,T/C,[1],99 % of control
CC1(c2cccc3ccccc23)NC(=O)c2ccccc2N1 (stereo not given),T/C,"dose: 50.0 mg/kg/injection, schedule: Q01DX009 (ip), vehicle: Klucel (hydroxypropylcellulose) (HPC)",105 % of control
same,T/C,"dose: 100.0 mg/kg/injection, schedule: Q01DX009 (ip), vehicle: Klucel (hydroxypropylcellulose) (HPC)",120 % of control
c1cc2c(c(CC3CO3)c1CC1CO1)OCCOCCOCCOCCO2 (stereo not given),T/C,"dose: 6.0 mg/kg/injection, schedule: Q01DX009 (ip), vehicle: saline + alcohol",98 % of control and 105 % of control
same,T/C,"dose: 12.0 mg/kg/injection, schedule: Q01DX009 (ip), vehicle: saline + alcohol",108 % of control
same,T/C,"dose: 24.0 mg/kg/injection, schedule: Q01DX009 (ip), vehicle: saline + alcohol",113 % of control
CC(C)(C)S[Si](Cl)(SC(C)(C)C)SC(C)(C)C,T/C,"dose: 100.0 mg/kg/injection, schedule: Q04DX002 (ip), vehicle: saline with Tween-80",119 % of control
same,T/C,"dose: 200.0 mg/kg/injection, schedule: Q04DX002 (ip), vehicle: saline with Tween-80",103 % of control
same,T/C,"dose: 400.0 mg/kg/injection, schedule: Q04DX002 (ip), vehicle: saline with Tween-80",94 % of control
CC1=C(O)/C(=C\C(C)CCCC(C)/C=C/C=C(\C)CCCc2ccoc2)OC1=O (stereo not given),T/C,"dose: 5.0 mg/kg/injection, schedule: Q01DX009 (ip), vehicle: other",98 % of control
same,T/C,"dose: 10.0 mg/kg/injection, schedule: Q01DX009 (ip), vehicle: other",96 % of control
same,T/C,"dose: 20.0 mg/kg/injection, schedule: Q01DX009 (ip), vehicle: other",97 % of control
CC(=O)Oc1ccc[nH]c1=O,T/C,"dose: 200.0 mg/kg/injection, schedule: Q01DX009 (ip), vehicle: saline",100 % of control
same,T/C,"dose: 264.0 mg/kg/injection, schedule: Q01DX009 (ip), vehicle: saline with Tween-80",115 % of control
same,T/C,"dose: 400.0 mg/kg/injection, schedule: Q01DX009 (ip), vehicle: saline",150 % of control
same,T/C,"dose: 600.0 mg/kg/injection, schedule: Q01DX009 (ip), vehicle: saline with Tween-80",115 % of control
same,T/C,"dose: 600.0 mg/kg/injection, schedule: Q01DX009 (ip), vehicle: saline",95 % of control
CC(=O)C(C)(NCc1ccccc1)c1ccccc1 (stereo not given),T/C,"dose: 45.0 mg/kg/injection, schedule: Q01DX001 (ip), vehicle: saline",104 % of control
same,T/C,"dose: 85.0 mg/kg/injection, schedule: Q01DX001 (ip), vehicle: saline",108 % of control and 116 % of control
same,T/C,[4],109 % of control
same,T/C,"dose: 135.0 mg/kg/injection, schedule: Q01DX001 (ip), vehicle: saline",120 % of control
same,T/C,[5],104 % of control
same,T/C,"dose: 300.0 mg/kg/injection, schedule: Q01DX001 (ip), vehicle: saline",100 % of control
same,T/C,[6],104 % of control
O=C(Nc1ccccc1C(=O)O)c1cc([N+](=O)[O-])cc([N+](=O)[O-])c1,T/C,[1],117 % of control
NS(=O)(=O)c1ccc(C(=O)NO)cc1,T/C,[4],100 % of control
same,T/C,[5],108 % of control
same,T/C,[6],108 % of control
Cc1occc(=O)c1O,T/C,[1],88 % of control
same,T/C,[2],117 % of control
same,T/C,[3],90 % of control
same,T/C,"dose: 400.0 mg/kg/injection, schedule: Q01DX009 (ip), vehicle: saline with Tween-80",106 % of control
C#CC[As+](c1ccccc1)(c1ccccc1)c1ccccc1,T/C,"dose: 3.0 mg/kg/injection, schedule: Q01DX009 (ip), vehicle: Klucel (hydroxypropylcellulose) (HPC)",121 % of control
same,T/C,"dose: 5.3 mg/kg/injection, schedule: Q04DX003 (ip), vehicle: Klucel (hydroxypropylcellulose) (HPC)",117 % of control
same,T/C,"dose: 12.0 mg/kg/injection, schedule: Q04DX003 (ip), vehicle: Klucel (hydroxypropylcellulose) (HPC)",104 % of control and 113 % of control
same,T/C,"dose: 25.0 mg/kg/injection, schedule: Q04DX003 (ip), vehicle: Klucel (hydroxypropylcellulose) (HPC)",109 % of control
CCOC(Cn1ccc(=O)[nH]c1=O)OCC,T/C,"dose: 100.0 mg/kg/injection, schedule: Q04DX003 (ip), vehicle: saline sonified",100 % of control
same,T/C,"dose: 200.0 mg/kg/injection, schedule: Q04DX003 (ip), vehicle: saline sonified",104 % of control
same,T/C,"dose: 400.0 mg/kg/injection, schedule: Q04DX003 (ip), vehicle: saline sonified",109 % of control
